Results reported in paper PMC9656727, “Biodereplication of Antiplasmodial Extracts: Application of the Amazonian Medicinal Plant Piper coruscans Kunth” (Molecules, 2022).
Where two headings read alike, the source gives them in different places.

What was measured:
[1] = test system: 3D7 Plasmodium falciparum strain; details: artemisinin reference value; read-out: 3D7 Sensitive Strain IC50; cited from earlier work
[2] = Heme-binding assay by mass spectrometry with collision-induced dissociation of adducts (DV50); details: energy dissociating 50% of the heme-Fe(III) adduct, NA = no adduct
Method: Hemin (iron-containing porphyrin with chlorine counterion) and the crude ethanolic extract were dissolved in DMSO at 5 mM and 10 mg/mL, respectively. Pure compounds were dissolved in DMSO at the concentration of 10 mM, except for Tween 20, which was dissolved in water at 10 µM. Citric-buffer-saturated octanol (CBSO) was prepared by mixing 5 mL of citric acid, 50 mM and pH 5.2, and 15 mL of N-octanol (anhydrous, ≥99%) and letting it settle at 23 °C for 30 min. The upper phase of the CBSO biphasic system was used. Autosampler 1260 infinity G1367E 1260 Hip ALS (Agilent Technologies, Santa Clara, CA, USA) was used to perform the automatic mixing of aliquots in 384-well plates. The incubation mixture was as follows: Compound 5 µL + heme 5 µL + Tween 5 µL + organic phase of CBSO 85 µL. Samples were injected in infusion mode (direct injection) in a 6530 Accurate-Mass QToF LC–MS instrument (Agilent Technologies) with the following settings: Positive ESI mode and 2 GHz acquisition rate. […] In positive-ion mode, purine ion C5H4N4 [M + H]^+ (m/z 121.050873) and the hexakis (1H,1H,3H-tetrafluoropropoxy)-phosphazene ion C18H18F24N3O6P3 [M+H]^+ (m/z 922.009798) were used as internal lock masses. Full scans were acquired at a resolution of ca 11 000 (at m/z 922).
To obtain heme-Fe(II) from hemin (heme-Fe(III)), glutathione (50 mM in water) was mixed with hemin (5 mM in DMSO) in a ratio of 1:1 and left to incubate for 40 min. This solution was used as the heme solution, as described above.
Dissociation in the collision chamber was caused by increasing collision energies from 0 to 56 eV. The MS–MS targeted mode, an isolation width of m/z 1.3, and the flow injection analysis mode (FIA) were applied. MS–MS parameters were the same as described above. The results were plotted, and a sigmoidal regression curve allowed us to calculate the energy necessary to dissociate 50% of adducts (DV50) using GraphPrism software version 5.00 (San Diego, CA, USA) or a Python script.
Ethanolic extract and hemin (heme-Fe(III)) were mixed and injected using infusion mode for the MS–MS experiment. Three collision energies were used: 30, 50, and 70 eV. The ten most intense ions (top 10) per cycle were selected. MS–MS acquisition parameters were as follows: m/z range of 100–1700, default charge of 1, a minimum intensity of 5000 counts, 3 spectra/s, and isolation width of 1.3 m/z. A list of compounds was generated by the “find by auto MSMS” algorithm of MassHunter software (Qualitative Analysis B.07.00, Agilent Technologies). The “extract average MS–MS spectrum” mode was used to summarize and average the results of the 3 collision energies. Exportation of generated spectra was performed in MGF format using the option “entire data file”. The information generated was uploaded onto the online platform GNPS (global natural product social network). Parameters used for the algorithm were as follows: Precursor ion mass tolerance = 1; fragment ion mass tolerance = 0.3; min pairs cos = 0.7; minimum matched fragment ions = 3; and minimum cluster size = 1. From the data, a network was calculated measuring correlations and was plotted using Cytoscape 3.5.1. […] An alkaloid extract from Cinchona pubescens Vahl (Rubiaceae) and eight antiplasmodial drugs (chloroquine, quinine, amodiaquine, ketoconazole, miconazole, mefloquine, praziquantel, and sulfadoxine) were used as examples of the visualization of adduct fragments by MN. The methodology and conditions were the same as described above.

[3] = test system: AB943 primary human dermal fibroblast cell line; experiment: Cytotoxicity, Alamar Blue; type: cell-based; details: for Selectivity Index CC50/IC50: CC50 on AB943 fibroblasts / IC50 on 3D7
Method: (§1) Cells were seeded in 96-well plates (20,000 cells/mL) and incubated for 24 h, then treated with the drug for 72 h. […] Fluorescent viable cells were monitored after 5 h of incubation at 37 °C at a wavelength of 530 nm for excitation and 590 nm for emission in an FL600 luminescence spectrometer (Biotek, Colmar, France).

[4] = Cytotoxicity, Alamar Blue; type: cell-based, human; details: human, 72 h treatment
Method: as §1

[5] = test system: 3D7 Plasmodium falciparum strain; experiment: In vitro antiplasmodial activity on Plasmodium falciparum (SYBR Green I); type: cell-based; details: for IC50: chloroquine-sensitive 3D7 strain, 44 h incubation
Method: The strain was maintained in O+ human erythrocytes in an albumin-supplemented RPMI medium under continuous culture using the candle-jar method. […] After 44 h of incubation at 37 °C, the plates were subjected to 3 freeze-thaw cycles to achieve complete hemolysis. The parasite lysis suspension was diluted 1:5 in lysis buffer. In vitro susceptibility is expressed as the concentration inhibiting 50% of the parasite's growth (IC50). Parasite growth was determined using SYBR® Green I, a dye with strong fluorescence enhancement upon contact with DNA. Incorporation of the SYBR® Green I (Fisher Scientific, Illkirch-Graffenstaden, France) in parasite DNA was measured using the Master […]® (Eppendorf, Montesson, France) according to the following program to increase the SYBR® Green I incorporation: 90 °C (1 min) and a decrease to 10 °C over 5 min followed by fluorescence reading. Untreated infected and uninfected erythrocytes were used as controls and chloroquine diphosphate (Sigma, Lezennes, France) was used as a reference drug. IC50 was calculated by IC-estimator online software (www.antimalarial-icestimator.net, accessed on 18 January 2018).

[6] = test system: Trypanosoma brucei; parameters: method as in PMID 28000515; details: read-out: IC50 against Trypanosoma brucei; cited from earlier work
[7] = AB943 primary human dermal fibroblast cells

Row | Molecule | DV50 [2] [eV] | Selectivity Index CC50/IC50 [3] | CC50 at 72 h [4, 7] [µM] | IC50 ([5]; Plasmodium falciparum) [µM] | other results
1 | C[C@@H]1CC[C@H]2[C@@H](C)C(=O)O[C@@H]3O[C@@]4(C)CC[C@@H]1[C@]32OO4 [ART, Artemisinin] | – | – | – | – | IC50 [1]: 0.004 µM
2 | CCN(CC)CCCC(C)Nc1ccnc2cc(Cl)ccc12 (stereo not drawn) [CQ, Chloroquine, reference compound] | 14.27 | – | – | – | DV50 ([2]; listed as chloroquine): above 14 eV
3 | COc1cc(OC)c(C(=O)/C=C/c2ccccc2)c(O)c1C [Compound 1, aurentiacin] | 5.15 | 30.4 | 68.5 | 2.25 | –
4 | COc1cc(O)c(C)c(O)c1C(=O)/C=C/c1ccccc1 [Compound 2, 2′, 4′-dihydroxy-6′-methoxy-3′-methylchalcone] | 5.93 | 1.9 | > 100 | 51 | –
5 | COc1cc(O)cc(O)c1C(=O)/C=C/c1ccccc1 [Compound 3, cardamomin] | 5.60 | 10.5 | – | 5.5 | CC50 at 72 h ([4]; read-out: AB943 Primary Human Fibroblast CC50): 58 µM; IC50 [6]: 1.8 µM
6 | COc1cc2c(c(O)c1C)C(=O)CC(c1ccccc1)O2 (stereo not drawn) [Compound 4, strobopinin 7-methyl ether] | – | – | > 100 | 60 | –
7 | COc1c(C)c(O)c2c(c1C)OC(c1ccccc1)CC2=O (stereo not drawn) [Compound 5, 5-hydroxy-7-methoxy-6,8-dimethyl flavanone] | – | <1 | 23 | 33.2 | –
8 | Cc1c(O)c(C)c2c(c1O)C(=O)CC(c1ccccc1)O2 (stereo not drawn) [Compound 6, desmethoxymatteucinol] | – | 1.4 | > 100 | 71 | –
9 | COc1cc(OC)c2c(c1C)OC(c1ccccc1)CC2=O (stereo not drawn) [Compound 9, dimethyl cryptostrobin] | 7.68 | 1.2 | > 100 | 85 | –
10 | COC(=O)C1=CC(O)C(O)(C(=O)/C=C/c2ccccc2)C1 (stereo not drawn) [Compound 10] | – | 1 | > 100 | > 100 | –
11 | COc1ccc(CCNC(=O)c2ccccc2)cc1 [Compound 11, N-Benzoyltyrarnine methyl ether] | 9.45 | 1 | > 100 | > 100 | antiplasmodial activity (in words) ([5]; 3D7 strain): no antiplasmodial activity
12 | O=C1C=Cc2ccccc21 [Compound 12, 1H-inden-1-one] | – | 1 | > 100 | > 100 | –
13 | alpinetin [Compound 7] | 8.40 | – | – | – | CC50 [3]: > 100 µM; IC50 [5]: 72 µM
14 | pinocembrin [Compound 8] | 8.68 | – | – | – | CC50 ([3]; 72 h treatment, read-out: AB943 Primary Human Fibroblast CC50): > 100 µM; IC50 [5]: 78 µM
